The subject of series [1] is Candida albicans. Nature of the series: Synergistic antifungal activity against Candida albicans SC5314 after 48 hrs in presence of 800 nmol AmB. Type of series: functional. Particulars: SC5314, 48 h.
The subject of series [2] is Candida albicans. Nature of the series: Antifungal activity against Candida albicans SC5314 after 48 hrs. In kind it is functional. Particulars: SC5314, 48 h.
In series [3] the test system is Candida albicans. The experiment in a line: Synergistic antifungal activity against Candida albicans SC5314 assessed as FIC index after 48 hrs in presence of 400 nmol AmB. In kind it is functional.
Series [4] concerns Candida albicans. Nature of the series: Ratio of MIC for Candida albicans SC5314 to MIC for Candida albicans SC5314 in presence of 800 nmol AmB. Type of series: functional.
For series [5], the system named is Candida albicans. Nature of the series: Ratio of MIC for Candida albicans SC5314 to MIC for Candida albicans SC5314 in presence of 400 nmol AmB. In kind it is functional.
For series [6], the system named is Candida albicans. The experiment in a line: Synergistic antifungal activity against Candida albicans SC5314 assessed as FIC index after 48 hrs in presence of 800 nmol AmB. Type of series: functional.
Series [7] has as its system Candida albicans. Nature of the series: Synergistic antifungal activity against Candida albicans SC5314 after 48 hrs in presence of 400 nmol AmB. Type of series: functional. Particulars: SC5314, 48 h.
In series [8] the test system is Candida albicans. The experiment in a line: Potency index, ratio of MIC for polymyxin B to compound MIC for antifungal activity against Candida albicans SC5314. In kind it is functional.
The next series concerns Lipid bilayer. Nature of the series: Disruption of phosphatidylcholine/ phosphatidylinositol/phosphatidylethanolamine membrane at 200 uM by colorimetric assay.
For a further series, the system named is HEK293. Nature of the series: Cytotoxicity against HEK293 cells after 48 hrs by MTT assay. Type of series: cell-based. Particulars: human, hek293, 48 h.
In another series the test system is Erythrocyte. Nature of the series: Haemolytic activity in human RBC incubated for 2 hrs. Type of series: ADME, cell-based.
Series [9] is described as follows: Toxicity in iv dosed Kunming mouse assessed as death counted daily for 14 days. In kind it is organism-based. Particulars: in vivo.
Series [10] in a line: Haemolytic activity in mouse RBC at 6 uM incubated for 1 hr relative to control. In kind it is ADME, cell-based, Erythrocyte. Particulars: mouse red blood cells (erythrocytes), read-out: Activity.
Series [11] has as its system Candida albicans. Nature of the series: Induction of eradication of 48 hrs old preformed Candida albicans SC5314 biofilm up to 125 uM after 24 to 48 hrs by XTT assay. Type of series: functional, organism-based. (Formazan colour is commonly taken as a measure of viable cells.)
Series [12] concerns Candida albicans. The experiment in a line: Induction of morphological changes in Candida albicans SC5314 assessed as necrosis of cytoplasm at 0.5 to 10 times MIC after 45 mins by Uranyl acetate/Lead citrate staining based transmission electron microscopic analysis. Type of series: functional, organism-based.
Series [13] has as its system Candida albicans. Nature of the series: Antibiofilm activity against Candida albicans SC5314 incubated for overnight by XTT assay. Type of series: functional.
Series [14] deals with Candida albicans. The experiment in a line: Induction of morphological changes in Candida albicans SC5314 assessed as disruption of fungal cell walls at 0.5 to 10 times MIC after 45 mins by Uranyl acetate/Lead citrate staining based transmission electron microscopic analysis. Type of series: functional, organism-based.
In series [15] the test system is Candida albicans. The experiment in a line: Induction of morphological changes in Candida albicans SC5314 assessed as disruption of fungal cell membranes at 0.5 to 10 times MIC after 45 mins by Uranyl acetate/Lead citrate staining based transmission electron microscopic analysis. In kind it is functional, organism-based.
In series [16] the test system is Candida albicans. Nature of the series: Induction of eradication of 24 hrs old preformed Candida albicans SC5314 biofilm after 24 to 48 hrs by XTT assay. In kind it is functional.

Molecules are shown by their SMILES. ≈ marks a conversion by molar mass, not a printed value. Calls of active or inactive are those of the source. The rule behind the calls is not given here. Bridge positions count the residues as written; N and C are the ends. Square brackets hold non-standard residues; d marks the D form. Peptide text beside a SMILES is read from it. * marks the point of attachment. ξ: configuration not given here. Hexanoyl(4ξ-Me) = CCC(C)CCC(=O)*; Myristoyl = CCCCCCCCCCCCCC(=O)*; X2 = CC(C)=CCC/C(C)=C/C(=O)*; X3 = CC[C@H](C)CCCCC(=O)*; dDab = NCC[C@@H](N)C(=O)O; X1 = CCC(C)CCC(O)CC(=O)*; Dab = NCC[C@H](N)C(=O)O

Regarding `CCC(C)CCC(=O)N[C@H](CCN)C(=O)N[C@@H](CCN)C(=O)N[C@@H](CCN)C(=O)N[C@@H](CC(C)C)C(=O)N[C@H](Cc1ccccc1)C(=O)N[C@@H](CCN)C(=O)N[C@@H](CCN)C(=O)N[C@@H](CC(C)C)C(N)=O` (stereo partly drawn) ({Hexanoyl(4ξ-Me)}-[dDab][Dab][Dab]L[dF][Dab][Dab]L-NH2), the MIC with Candida albicans [1] is 1.56 µM; in the series with Candida albicans [2] it was 50 µM (≈ 50.2 µg/mL); in the series on Candida albicans [7], 12.5 µM. Besides, the “fractional inhibitory concentration index (FICI)” value in the series with Candida albicans [3] is 8.26; in the series with Candida albicans [6], 1.03. For the same compound, the Ratio was 8 - 32 with Candida albicans [4], 4 in the series with Candida albicans [5] and 2 in the series on Candida albicans [8].

`CCCCC(=O)N[C@H](CCN)C(=O)N[C@@H](CCN)C(=O)N[C@@H](CCN)C(=O)N[C@@H](CC(C)C)C(=O)N[C@H](Cc1ccccc1)C(=O)N[C@@H](CCN)C(=O)N[C@@H](CCN)C(=O)N[C@@H](CC(C)C)C(N)=O` showed an MIC against Candida albicans [2] of over 100 µM. Besides, the result in the series on Lipid bilayer was inactive.

On to `CC(C)C[C@H](NC(=O)[C@H](CCN)NC(=O)[C@H](CCN)NC(=O)[C@@H](Cc1ccccc1)NC(=O)[C@H](CC(C)C)NC(=O)[C@H](CCN)NC(=O)[C@H](CCN)NC(=O)[C@@H](CCN)NC(=O)[C@H](N)CS)C(N)=O`, for which the MIC against Candida albicans [2] was over 100 µM.

Take `CCC(C)CCC(=O)N[C@H](CCCCN)C(=O)N[C@@H](CCCCN)C(=O)N[C@@H](CCCCN)C(=O)N[C@@H](CC(C)C)C(=O)N[C@H](Cc1ccccc1)C(=O)N[C@@H](CCCCN)C(=O)N[C@@H](CCCCN)C(=O)N[C@@H](CC(C)C)C(N)=O` (stereo not given in full): in the series on Candida albicans [2], the MIC is over 100 µM.

In the series with Candida albicans [2], `CCC(=O)N[C@H](CCN)C(=O)N[C@@H](CCN)C(=O)N[C@@H](CCN)C(=O)N[C@@H](CC(C)C)C(=O)N[C@H](Cc1ccccc1)C(=O)N[C@@H](CCN)C(=O)N[C@@H](CCN)C(=O)N[C@@H](CC(C)C)C(N)=O` registered an MIC of over 100 µM. In addition, the outcome in the series with Lipid bilayer was inactive.

Compound `CC[C@H](C)CCCCC(=O)N[C@@H](CCN)C(=O)N[C@H](C(=O)N[C@@H](CCN)C(=O)N[C@H]1CCNC(=O)[C@H]([C@@H](C)O)NC(=O)[C@H](CCN)NC(=O)[C@H](CCN)NC(=O)[C@H](CC(C)C)NC(=O)[C@@H](Cc2ccccc2)NC(=O)[C@H](CCN)NC1=O)[C@@H](C)O` (X3-[Dab]T[Dab][Dab][Dab][dF]L[Dab][Dab]T; lactam 4-C) came in with an MIC in the series on Candida albicans [2] of over 100 µM.

In the series on Candida albicans [2], `CC(C)C[C@H](NC(=O)[C@H](CCN)NC(=O)[C@H](CCN)NC(=O)[C@@H](Cc1ccccc1)NC(=O)[C@H](CC(C)C)NC(=O)[C@H](CCN)NC(=O)[C@H](CCN)NC(=O)[C@H](N)CCN)C(N)=O` (H-[dDab][Dab][Dab]L[dF][Dab][Dab]L-NH2) returned an MIC of over 100 µM.

Take `CCC(C)CCC(=O)N[C@H](CCN)C(=O)N[C@@H](CCN)C(=O)N[C@@H](CCN)C(=O)N[C@@H](CC(C)C)C(=O)N[C@H](Cc1c[nH]c2ccccc12)C(=O)N[C@@H](CCN)C(=O)N[C@@H](CCN)C(=O)N[C@@H](CC(C)C)C(N)=O` (stereo not given in full): the MIC against Candida albicans [2] came to 25 µM (≈ 26.1 µg/mL).

Take `CCCCCC(=O)N[C@H](CCN)C(=O)N[C@@H](CCN)C(=O)N[C@@H](CCN)C(=O)N[C@@H](CC(C)C)C(=O)N[C@H](Cc1ccccc1)C(=O)N[C@@H](CCN)C(=O)N[C@@H](CCN)C(=O)N[C@@H](CC(C)C)C(N)=O`: it took 100 µM (≈ 98.9 µg/mL) to inhibit growth with Candida albicans [2] (MIC). Also, the result with Lipid bilayer was inactive.

Consider `CCC(C)CCC(O)CC(=O)N[C@H](CCN)C(=O)N[C@H]1CCNC(=O)[C@H](CC(C)C)NC(=O)[C@H](CCN)NC(=O)[C@H](CCN)NC(=O)[C@@H](Cc2ccccc2)NC(=O)[C@H](CC(C)C)NC(=O)[C@H](CCN)NC1=O` (stereo not given in full) (X1-[dDab][Dab][Dab]L[dF][Dab][Dab]L; lactam 2-C), for which the Activity in the series on HEK293 was over 128 µg/mL; in the series with Erythrocyte it was over 750 µg/mL. In addition, the LD50 at 336 h in [9] is 6 mg/kg.

As to `CC(C)C[C@H](NC(=O)[C@H](CCN)NC(=O)[C@H](CCN)NC(=O)[C@@H](Cc1ccccc1)NC(=O)[C@H](CC(C)C)NC(=O)[C@H](CCN)NC(=O)[C@H](CCN)NC(=O)[C@@H](CCN)NC(=O)OCC1c2ccccc2-c2ccccc21)C(N)=O`, in the series on Candida albicans [2], the MIC amounted to 12.5 µM (≈ 13.9 µg/mL).

Consider `CC(C)=CCC/C(C)=C/C(=O)N[C@H](CCN)C(=O)N[C@@H](CCN)C(=O)N[C@@H](CCN)C(=O)N[C@@H](CC(C)C)C(=O)N[C@H](Cc1ccccc1)C(=O)N[C@@H](CCN)C(=O)N[C@@H](CCN)C(=O)N[C@@H](CC(C)C)C(N)=O` (X2-[dDab][Dab][Dab]L[dF][Dab][Dab]L-NH2), for which 50 µM (≈ 52.1 µg/mL) was the least that counted as inhibitory with Candida albicans [2] (MIC).

In the case of `C[C@@H]1[C@H](O)[C@@H](C)/C=C/C=C/C=C/C=C/C=C/C=C/C=C/[C@H](O[C@@H]2O[C@H](C)[C@@H](O)[C@H](N)[C@@H]2O)C[C@@H]2O[C@](O)(C[C@@H](O)C[C@@H](O)[C@H](O)CC[C@@H](O)C[C@@H](O)CC(=O)O[C@H]1C)C[C@H](O)[C@H]2C(=O)O` [AMPHOTERICIN B], the hemolysis at 1 h, 6 µM in [10] turned out to be 50%. In addition, the result in the series on Candida albicans [11] was inactive. For the same compound, the outcome in the series on Candida albicans [12], in the series on Candida albicans [14] and in the series with Candida albicans [15] was Active. In the series on Candida albicans [13], this compound showed an MBIC50 of 0.78 µM. Inhibition of growth against Candida albicans [2] (MIC) required 1.56 µM (≈ 1.44 µg/mL). The compound further showed an MBEC50 in the series with Candida albicans [16] of 6.25 µM.

Compound `CC(=O)N[C@H](CCN)C(=O)N[C@@H](CCN)C(=O)N[C@@H](CCN)C(=O)N[C@@H](CC(C)C)C(=O)N[C@H](Cc1ccccc1)C(=O)N[C@@H](CCN)C(=O)N[C@@H](CCN)C(=O)N[C@@H](CC(C)C)C(N)=O` returned an MIC against Candida albicans [2] of over 100 µM. In the series with Lipid bilayer, the outcome was inactive.

The compound `CCCCCCCCCCCCCC(=O)N[C@H](CCN)C(=O)N[C@@H](CCN)C(=O)N[C@@H](CCN)C(=O)N[C@@H](CC(C)C)C(=O)N[C@H](Cc1ccccc1)C(=O)N[C@@H](CCN)C(=O)N[C@@H](CCN)C(=O)N[C@@H](CC(C)C)C(N)=O` (Myristoyl-[dDab][Dab][Dab]L[dF][Dab][Dab]L-NH2) registered an MIC with Candida albicans [2] of 12.5 µM (≈ 13.8 µg/mL).

As for `CCC(C)CCC(=O)N[C@H](CCN)C(=O)N[C@@H](CCN)C(=O)N[C@@H](CC(C)C)C(=O)N[C@H](Cc1ccccc1)C(=O)N[C@@H](CCN)C(N)=O` (stereo not given in full) ({Hexanoyl(4ξ-Me)}-[dDab][Dab]L[dF][Dab]-NH2), the minimal inhibitory concentration (MIC) against Candida albicans [2] was over 100 µM.

For `CCC(C)CCC(=O)N[C@H](CCN)C(=O)N[C@@H](CCN)C(=O)N[C@@H](CCN)C(=O)N[C@@H](CC(C)C)C(=O)N[C@H](Cc1ccccc1)C(=O)N[C@@H](CCN)C(=O)N[C@@H](CCN)C(=O)N[C@@H](CC(C)C)C(=O)N[C@H](CCN)C(=O)N[C@@H](CCN)C(=O)N[C@@H](CCN)C(=O)N[C@@H](CC(C)C)C(=O)N[C@H](Cc1ccccc1)C(=O)N[C@@H](CCN)C(=O)N[C@@H](CCN)C(=O)N[C@@H](CC(C)C)C(N)=O` (stereo not given in full), the MIC in the series on Candida albicans [1] was determined as 1.56 µM; in the series with Candida albicans [2], 12.5 µM (≈ 23.5 µg/mL); in the series on Candida albicans [7] it was 3.12 µM. Further, the entries for the “fractional inhibitory concentration index (FICI)” value in the series with Candida albicans [3] and with Candida albicans [6] were 2.24 and 1.12, respectively. In addition, the Ratio in the series with Candida albicans [4] was 8 - 32; with Candida albicans [5] it was 4.

In the series on Candida albicans [2], `CCCC(=O)N[C@H](CCN)C(=O)N[C@@H](CCN)C(=O)N[C@@H](CCN)C(=O)N[C@@H](CC(C)C)C(=O)N[C@H](Cc1ccccc1)C(=O)N[C@@H](CCN)C(=O)N[C@@H](CCN)C(=O)N[C@@H](CC(C)C)C(N)=O` registered a minimum inhibitory concentration (MIC) of over 100 µM. The result with Lipid bilayer was inactive.

What is called MIC is the lowest concentration found to suppress growth. Usually LD50 stands for the dose at which mortality reaches 50%.
